# Article PMC7765920 (Molecules, 2020)
# Read-outs that look alike come from different tables or passages of the source. Marks after values point to notes of the source that are not given here.
# Tests used:
# [1] = target: T1, GST-CLK1cat (amino acids 141–484 of human CLK1) (Homo sapiens, UniProt P49759); assay: Kinase-GLO luminescent assay of CLK1 catalytic activity; assay type: biochemical; settings: for remaining activity at 1 µM: read-out: CLK1 residual activity
# T1 construct: containing amino acids 141–484 of human CLK1; made in house; host or cells: E. coli
# T1 sequence (P49759 141-484): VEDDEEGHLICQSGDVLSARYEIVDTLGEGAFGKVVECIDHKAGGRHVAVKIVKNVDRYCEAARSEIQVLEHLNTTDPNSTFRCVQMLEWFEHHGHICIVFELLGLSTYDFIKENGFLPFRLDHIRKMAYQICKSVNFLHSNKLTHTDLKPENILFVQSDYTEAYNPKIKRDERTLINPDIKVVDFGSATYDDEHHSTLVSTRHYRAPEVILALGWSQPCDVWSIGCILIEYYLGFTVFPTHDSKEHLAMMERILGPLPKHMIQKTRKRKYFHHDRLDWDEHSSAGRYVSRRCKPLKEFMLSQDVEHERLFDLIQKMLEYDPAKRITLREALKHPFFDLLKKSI
# Description: (§1) Optimization of the compounds, however, aimed predominantly at elimination of MAO-A-inhibitory activity while keeping DYRK1A inhibitory potency, and not at achieving high selectivity for DYRK1A over CLK1. The tests were performed as described by us before in detail. Due to the very large number of test compounds (more than 60), a first screening was performed at a single inhibitor concentration of 1 µM.
# (§2) Inhibitors were dissolved in DMSO at a concentration of 10 mM and stored at […]. Working solutions were prepared to achieve a final concentration of 1 µM in the enzyme assays.
# (§3) Recombinant kinases were purified from E. coli as GST (glutathione S-transferase) fusion constructs by affinity adsorption to glutathione-Sepharose. […] Catalytic activity of the kinases was measured with the help of the Kinase-GLO^TM Luminescent Assay from Promega. Assays were performed in a total volume of 10 μL in kinase buffer (25 mM Hepes pH 7.4, 0.5 mM DTT, 5 mM MgCl2, 5 μM ATP) with appropriate peptide substrates (20 μM DYRKtide for the DYRKs and 100 μM DYRKtide for HIPK2, […]; or 100 μM RS peptide for CLK1, […]). Kinases amounts in the assays were adjusted so that approximately 90% of the ATP in the assay was consumed in control samples without inhibitor. Kinase reactions were incubated at room temperature for 30 min before 10 μL Kinase-GLO reagent was added for luminometric measurement of the ATP that was not consumed by the kinases. After incubation at room temperature for an additional 10 min, luminescence was recorded for 1 s (Berthold Orion Microplate Luminometer). ATP consumption in the control samples without inhibitor was set as 100% catalytic activity, and the inhibitory effects of the test compounds were calculated relative to this value.
# [2] = tested on: GST-DYRK1A-ΔC (amino acids 1–499 of rat DYRK1A); assay: Kinase-GLO luminescent assay of DYRK1A catalytic activity; assay type: biochemical; settings: ratio of the MAO-A and DYRK1A IC50 values of Table 2
# [3] = target: T2, GST-DYRK1A-ΔC (amino acids 1–499 of rat DYRK1A) (Rattus norvegicus, UniProt Q63470); assay: as above; assay type: biochemical; settings: for remaining activity at 1 µM: read-out: DYRK1A residual activity
# T2 construct: containing amino acids 1–499 of rat DYRK1A; made in house; host or cells: E. coli
# Description: as §1, §2, §3
# human recombinant MAO-A = target: T3, human recombinant MAO-A (Homo sapiens, UniProt P21397); assay: MAO-GLO luminescence assay of MAO-A catalytic activity; assay type: biochemical; settings: for remaining activity at 1 µM: read-out: MAO-A residual activity
# T3 sequence (P21397 1-527): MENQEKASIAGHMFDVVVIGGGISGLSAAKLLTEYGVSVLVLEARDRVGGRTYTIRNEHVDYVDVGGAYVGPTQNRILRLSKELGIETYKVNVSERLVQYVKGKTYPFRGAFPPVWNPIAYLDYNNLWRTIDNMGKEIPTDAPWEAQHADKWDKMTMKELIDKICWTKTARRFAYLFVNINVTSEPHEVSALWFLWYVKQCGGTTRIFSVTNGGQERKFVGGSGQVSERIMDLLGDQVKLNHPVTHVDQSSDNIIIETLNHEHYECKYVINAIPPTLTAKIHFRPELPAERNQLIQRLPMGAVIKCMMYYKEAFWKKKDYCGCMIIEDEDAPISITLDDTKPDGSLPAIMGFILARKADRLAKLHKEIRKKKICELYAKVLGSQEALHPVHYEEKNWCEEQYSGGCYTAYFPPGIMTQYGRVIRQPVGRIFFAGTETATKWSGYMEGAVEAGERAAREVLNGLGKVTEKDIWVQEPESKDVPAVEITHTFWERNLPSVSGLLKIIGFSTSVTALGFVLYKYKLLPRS
# Description: as §1, §2
# Catalytic activity of monoamine oxidase A (MAO-A) was measured by using the luminescence-based MAO-GLO^TM Assay from Promega. Recombinant MAO-A converts a luminogenic MAO substrate into luciferin, which is, in turn, luminometrically detected in a luciferase reaction. The amount of light produced is directly proportional to MAO activity. […] Inhibitory effects of the tested compounds were calculated relative to the activity of control reactions that were run in the absence of inhibitors.
# [4] = 1 µM inhibitor concentration, residual activity relative to control without inhibitor
"remaining activity at 1 µM [1, 4] [%]","remaining activity at 1 µM [3, 4] [%]",remaining activity at 1 µM (human recombinant MAO-A; [4]) [%],Compound,also measured
10,5,102,"COc1ccc2c3ccnc(C)c3n(C(C)C#N)c2c1 (racemic) [AnnH43, (±)-2-(7-Methoxy-1-methyl-9H-pyrido[3,4-b]indol-9-yl)propanenitrile]",Selectivity for DYRK1A over MAO-A [2]: 26
37,40,30,"COc1ccc2c3ccnc(C)c3n(CCOc3ccccc3)c2c1 [AnnH40, 7-Methoxy-1-methyl-9-(2-phenoxyethyl)-9H-pyrido[3,4-b]indole]",
44,22,114,"COc1ccc2c3ccnc(C)c3n(CCC#N)c2c1 [AnnH42, 3-(7-Methoxy-1-methyl-9H-pyrido[3,4-b]indol-9-yl)propanenitrile]",
77,33,70,"COc1ccc2c3ccnc(C)c3n(CCN3CCOCC3)c2c1 [AnnH53, 4-[2-(7-Methoxy-1-methyl-9H-pyrido[3,4-b]indol-9-yl)-ethyl]morpholine]",melting point: 183 °C
85,48,67,"COc1ccc2c3ccnc(C)c3n(CCN3CCCC3)c2c1 [AnnH55, 7-Methoxy-1-methyl-9-[2-(pyrrolidin-1-yl)ethyl]-9H-pyrido[3,4-b]indole]",
78,33,97,"COc1ccc2c3ccnc(C)c3n(CCN3CCCCC3)c2c1 [AnnH57, 7-Methoxy-1-methyl-9-[2-(piperidin-1-yl)ethyl]-9H-pyrido[3,4-b]indole]",
15,30,19,"COc1ccc2c3ccnc(C)c3n(C(C)=O)c2c1 [AnnH59, 1-(7-Methoxy-1-methyl-9H-pyrido[3,4-b]indol-9-yl)ethan-1-one]",
46,12,112,"C#CCn1c2cc(OC)ccc2c2ccnc(Cl)c21 [AnnH74, 1-Chloro-7-methoxy-9-(prop-2-yn-1-yl)-9H-pyrido[3,4-b]indole]",
96,35,112,"CCOC(=O)Cn1c2cc(OC)ccc2c2ccnc(Cl)c21 [AnnH76, Ethyl 2-(1-Chloro-7-methoxy-9H-pyrido[3,4-b]indol-9-yl)acetate]",
86,63,123,"COc1ccc2c3ccnc(Cl)c3n(CCCN(C)C)c2c1 [AnnH77, 3-(1-Chloro-7-methoxy-9H-pyrido[3,4-b]indol-9-yl)-N,N-dimethylpropan-1-amine]",melting point: 86 to 87 °C
52,47,137,"CCOC(=O)Cn1c2cc(OC)ccc2c2ccnc(CC)c21 [AnnH88, Ethyl 2-(1-ethyl-7-methoxy-9H-pyrido[3,4-b]indol-9-yl)acetate]",
54,55,15,"COc1ccc2c(c1)C(=O)c1c-2ccnc1C [AnnHT2, 7-Methoxy-1-methyl-9H-indeno-[2,1-c]pyridin-9-one]",
7,35,65,"COc1ccc2c(c1)/C(=C\C#N)c1c-2ccnc1C [AnnHT5, (2E)-(7-Methoxy-1-methyl-9H-indeno[2,1c]pyridin-9-ylidene)ethanenitrile]",
27,37,46,"Cc1nccc2c1C(=O)c1cc(O)ccc1-2 [AnnHT6, 7-Hydroxy-1-methyl-9H-indeno-[2,1-c]pyridin-9-one]",

# The remaining lines, values behind:
Compound,"remaining activity at 1 µM [1, 4] [%]","remaining activity at 1 µM [3, 4] [%]",remaining activity at 1 µM (human recombinant MAO-A; [4]) [%],also measured
"C#CCn1c2cc(OC)ccc2c2ccnc(C)c21 [AnnH44, 7-Methoxy-1-methyl-9-(prop-2-yn-1-yl)-9H-pyrido[3,4-b]indole]",17,2,22,
"Clc1ccc2c([nH]c3c(Br)nccc32)c1Cl [AnnH52, 1-Bromo-7,8-dichloro-9H-pyrido[3,4-b]indole]",45,36,118,
"Cc1nccc2c1[nH]c1c(Cl)c(Cl)ccc12 [AnnH63, 7,8-Dichloro-1-methyl-9H-pyrido[3,4-b]indole]",26,3,32,
"CCOC(=O)Cn1c2c(C)nccc2c2ccc(Cl)c(Cl)c21 [AnnH66, Ethyl 2-(7,8-Dichloro-1-methyl-9H-pyrido[3,4-b]-9-yl)acetate]",71,26,78,
"C#CCn1c2c(C)nccc2c2ccc(Cl)c(Cl)c21 [AnnH67, 7,8-Dichloro-1-methyl-9-(prop-2-yn-1-yl)-9H-pyrido[3,4-b]indole]",34,17,122,
"Cc1nccc2c3ccc(Cl)c(Cl)c3n(CC#N)c12 [AnnH69, 2-(7,8-Dichloro-1-methyl-9H-pyrido[3,4-b]indol-9-yl)acetonitrile]",,,,remaining activity at 1 µM [1]: 33%; remaining activity at 1 µM [3]: 17%; remaining activity at 1 µM (human recombinant MAO-A): 101%
"Cc1nccc2c3ccc(Cl)c(Cl)c3n(CCCN(C)C)c12 [AnnH71, 3-(7,8-Dichloro-1-methyl-9H-pyrido[3,4-b]-9-yl)-N,N-dimethylpropan-1-amine]",90,47,110,melting point: 126 to 128 °C
"COc1ccc2c3ccnc(C)c3n(CC=C(C)C)c2c1 [AnnH73, 7-Methoxy-1-methyl-9-(3-methylbut-2-en-1-yl)-9H-pyrido[3,4-b]indole]",,,,remaining activity at 1 µM [1]: 2%; remaining activity at 1 µM [3]: 6%; remaining activity at 1 µM (human recombinant MAO-A): 52%
"N#CCn1c2c(Br)nccc2c2ccc(Cl)c(Cl)c21 [AnnH79, 2-(1-Bromo-7,8-dichloro-9H-pyrido[3,4-b]indol-9-yl)-acetonitrile]",88,93,143,
"C#CCn1c2c(Br)nccc2c2ccc(Cl)c(Cl)c21 [AnnH80, 1-Bromo-7,8-dichloro-9-(prop-2-yn-1-yl)-9H-pyrido[3,4-b]indole]",84,95,123,
"CCc1nccc2c1[nH]c1cc(OC)ccc12 [AnnH89, 1-Ethyl-7-methoxy-9H-pyrido[3,4-b]indole]",7,37,34,
"COc1ccc2c(c1)[nH]c1c(C)cccc12 [AnnHOG3, 7-Methoxy-1-methyl-9H-carbazole]",97,71,100,
"COc1ccc2c(c1)[nH]c1cnccc12 [norharmine (AnnH90), norharmine]",26,36,45,
harmol [reference compound],,,,"CLK1 residual activity [1, 4]: 6 *** %; DYRK1A residual activity [3, 4]: 18%; MAO-A residual activity (human recombinant MAO-A; [4]): 120%"
